Reference: EP4667483A1, “HUMAN TRANSFERRIN RECEPTOR-BINDING PEPTIDE” (JCR Pharmaceuticals Co., Ltd., priority 2023, dated 2024)
pKd: −log10 of the molar value. Bridge positions count the residues as written; N and C are the ends. Square brackets hold non-standard residues; d marks the D form. Peptide text beside a SMILES is read from it. * marks the point of attachment. Ala(imidazo(1,2-a)pyr3yl) = N[C@@H](Cc1cnc2ccccn12)C(=O)O; NMePhe(4-COOH) = CN[C@@H](Cc1ccc(C(=O)O)cc1)C(=O)O; Phe(3-COOH) = N[C@@H](Cc1cccc(C(=O)O)c1)C(=O)O; NMePhe(3-Cl) = CN[C@@H](Cc1cccc(Cl)c1)C(=O)O; 3Pal(6-NH2) = Nc1ccc(C[C@H](N)C(=O)O)cn1; NMeW = CN[C@@H](Cc1c[nH]c2ccccc12)C(=O)O; Lys(N3) = [N-]=[N+]=NCCCC[C@H](N)C(=O)O; NMeY = CN[C@@H](Cc1ccc(O)cc1)C(=O)O; Nva(3-Et) = CCC(CC)[C@H](N)C(=O)O; NMeF = CN[C@@H](Cc1ccccc1)C(=O)O; 4Pal = N[C@@H](Cc1ccncc1)C(=O)O; PEG4 = NCCOCCOCCOCCOCCC(=O)O; Carboxymethyl = O=C(O)C*; NH(CH2)3NH2 = NCCCN*

Assays:
[1] = molecular target: T1, human transferrin receptor (hTfR) (Homo sapiens, UniProt P02786); test: SPR measurement under pH 6.0 conditions (Biacore T200, NTA chip, immobilized hTfR); format: binding; details: read-out: hTfR SPR pH6.0 KD
T1 sequence (P02786 whole entry): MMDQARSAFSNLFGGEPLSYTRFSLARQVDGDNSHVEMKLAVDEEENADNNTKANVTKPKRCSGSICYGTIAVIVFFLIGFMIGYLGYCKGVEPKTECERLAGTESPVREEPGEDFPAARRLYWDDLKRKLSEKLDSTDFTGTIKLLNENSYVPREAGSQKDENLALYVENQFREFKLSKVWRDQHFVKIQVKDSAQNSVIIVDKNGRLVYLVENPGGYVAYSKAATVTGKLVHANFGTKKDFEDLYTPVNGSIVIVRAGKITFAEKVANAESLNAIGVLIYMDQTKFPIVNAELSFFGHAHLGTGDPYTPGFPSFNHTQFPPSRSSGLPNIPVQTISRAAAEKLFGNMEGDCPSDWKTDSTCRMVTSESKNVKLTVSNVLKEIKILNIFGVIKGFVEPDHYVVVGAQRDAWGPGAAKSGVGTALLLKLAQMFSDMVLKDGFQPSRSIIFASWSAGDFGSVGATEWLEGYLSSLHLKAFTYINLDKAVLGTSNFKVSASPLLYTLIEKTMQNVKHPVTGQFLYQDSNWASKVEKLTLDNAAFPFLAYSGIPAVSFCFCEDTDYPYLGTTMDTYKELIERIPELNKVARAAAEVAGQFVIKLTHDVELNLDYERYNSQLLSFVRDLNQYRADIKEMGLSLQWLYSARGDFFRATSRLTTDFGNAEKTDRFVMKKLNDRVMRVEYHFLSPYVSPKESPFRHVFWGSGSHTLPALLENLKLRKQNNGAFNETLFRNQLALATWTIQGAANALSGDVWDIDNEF

[2] = molecular target: T1, human transferrin receptor (hTfR); test: SPR measurement under pH 7.4 conditions (Biacore T200, CM3 chip, hTfR captured by His Tag antibody); format: binding; details: read-out: hTfR SPR pH7.4 KD

| SMILES | pKd ([1]; pH 6.0, single-cycle kinetics) | pKd ([2]; pH 7.4, single-cycle kinetics) | pKd ([1]; SPR, pH 6.0, Table 1-3-2-2) | pKd ([2]; SPR, pH 7.4, Table 1-3-2-2) |
| --- | --- | --- | --- | --- |
| CC[C@H](C)[C@@H]1NC(=O)[C@H](Cc2ccc(OC)cc2)NC(=O)[C@H](Cc2ccc(N)nc2)NC(=O)[C@H](CC(N)=O)NC(=O)[C@H](Cc2c[nH]c3ccccc23)N(C)C(=O)[C@H](C(C)C)NC(=O)[C@H](Cc2cccc(Cl)c2)N(C)C(=O)[C@H](C(C)C)NC(=O)[C@H](C)NC(=O)CSC[C@@H](C(=O)NCCOCCOCCOCCOCCC(N)=O)NC(=O)[C@H](Cc2ccc(O)cc2)N(C)C(=O)[C@H](Cc2ccccc2)NC(=O)[C@H](CCCNC(=N)N)NC(=O)[C@H](CCC(N)=O)NC(=O)[C@H]([C@@H](C)CC)NC1=O [compound 170] ({CH2CO}-AV[NMePhe(3-Cl)]V[NMeW]N[3Pal(6-NH2)]Y(Me)IIQRF[NMeY]C[PEG4]-NH2; thioether N-15) | 8.12 | 8.87 |  |  |
| CC[C@H](C)[C@@H]1NC(=O)[C@H](Cc2ccc(OC)cc2)NC(=O)[C@H](Cc2ccc(N)nc2)NC(=O)[C@H](CC(N)=O)NC(=O)[C@H](Cc2c[nH]c3ccccc23)N(C)C(=O)[C@H](C(C)C)NC(=O)[C@H](Cc2cccc(Cl)c2)N(C)C(=O)[C@H](C(C)C)NC(=O)[C@H](C)NC(=O)CSC[C@@H](C(=O)NCCOCCOCCOCCOCCC(N)=O)NC(=O)[C@H](Cc2ccc(O)cc2)N(C)C(=O)[C@H](Cc2ccccc2)NC(=O)[C@H](CCCNC(=N)N)NC(=O)[C@H](CCC(=O)NCCCN)NC(=O)[C@H]([C@@H](C)CC)NC1=O [compound 172] ({CH2CO}-AV[NMePhe(3-Cl)]V[NMeW]N[3Pal(6-NH2)]Y(Me)IIE(NH(CH2)3NH2)RF[NMeY]C[PEG4]-NH2; thioether N-15) | 8.59 | 9.67 |  |  |
| CC[C@H](C)[C@@H]1NC(=O)[C@H](Cc2ccc(OC)cc2)NC(=O)[C@H](CCCNC(=N)N)NC(=O)[C@H](CC(N)=O)NC(=O)[C@H](Cc2c[nH]c3ccccc23)N(C)C(=O)[C@H](C(C)C)NC(=O)[C@H](Cc2cccc(Cl)c2)N(C)C(=O)[C@H](C(C)C)NC(=O)[C@H](C)NC(=O)CSC[C@@H](C(=O)NCCOCCOCCOCCOCCC(N)=O)NC(=O)[C@H](Cc2ccc(O)cc2)N(C)C(=O)[C@H](Cc2ccccc2)NC(=O)[C@H](CCCNC(=N)N)NC(=O)[C@H](CCC(N)=O)NC(=O)[C@H]([C@@H](C)CC)NC1=O [compound 174] ({CH2CO}-AV[NMePhe(3-Cl)]V[NMeW]NRY(Me)IIQRF[NMeY]C[PEG4]-NH2; thioether N-15) | 7.12 | 7.69 |  |  |
| CC[C@H](C)[C@@H]1NC(=O)[C@H](Cc2ccc(OC)cc2)NC(=O)[C@H](CCCNC(=N)N)NC(=O)[C@H](CC(N)=O)NC(=O)[C@H](Cc2c[nH]c3ccccc23)N(C)C(=O)[C@H](C(C)C)NC(=O)[C@H](Cc2cccc(Cl)c2)N(C)C(=O)[C@H](C(C)C)NC(=O)[C@H](C)NC(=O)CSC[C@@H](C(=O)NCCOCCOCCOCCOCCC(N)=O)NC(=O)[C@H](Cc2ccc(O)cc2)N(C)C(=O)[C@H](Cc2ccccc2)NC(=O)[C@H](CCCNC(=N)N)NC(=O)[C@H](CCC(=O)NCCCN)NC(=O)[C@H]([C@@H](C)CC)NC1=O [compound 175] ({CH2CO}-AV[NMePhe(3-Cl)]V[NMeW]NRY(Me)IIE(NH(CH2)3NH2)RF[NMeY]C[PEG4]-NH2; thioether N-15) | 7.91 | 8.52 |  |  |
| CC[C@H](C)[C@@H]1NC(=O)[C@H](Cc2ccc(OCC(=O)O)cc2)NC(=O)[C@H](Cc2ccc(O)cc2)NC(=O)[C@H](CC(N)=O)NC(=O)[C@H](Cc2c[nH]c3ccccc23)N(C)C(=O)[C@H](C(C)C)NC(=O)[C@H](Cc2cccc(Cl)c2)N(C)C(=O)[C@H](C(C)C)NC(=O)[C@H](C)NC(=O)CSC[C@@H](C(=O)NCCOCCOCCOCCOCCC(N)=O)NC(=O)[C@H](Cc2ccc(O)cc2)N(C)C(=O)[C@H](Cc2cccc(C(=O)O)c2)NC(=O)[C@H](CCCNC(=N)N)NC(=O)[C@H](CCCCN)NC(=O)[C@H]([C@@H](C)CC)NC1=O [compound 177] | 8.65 | 9.87 |  |  |
| CC[C@H](C)[C@@H]1NC(=O)[C@H](Cc2ccc(OCC(=O)O)cc2)NC(=O)[C@H](Cc2ccc(O)cc2)NC(=O)[C@H](CC(N)=O)NC(=O)[C@H](Cc2c[nH]c3ccccc23)N(C)C(=O)[C@H](C(C)C)NC(=O)[C@H](Cc2cccc(Cl)c2)N(C)C(=O)[C@H](C(C)C)NC(=O)[C@H](C)NC(=O)CSC[C@@H](C(=O)NCCOCCOCCOCCOCCC(N)=O)NC(=O)[C@H](Cc2ccc(C(=O)NCCOCCOCCOCCOCCC(=O)O)cc2)N(C)C(=O)[C@H](Cc2cccc(C(=O)O)c2)NC(=O)[C@H](CCCNC(=N)N)NC(=O)[C@H](CCCCN)NC(=O)[C@H]([C@@H](C)CC)NC1=O [compound 178] ({CH2CO}-AV[NMePhe(3-Cl)]V[NMeW]NYY(Carboxymethyl)IIKR[Phe(3-COOH)][NMePhe(4-COOH)](PEG4)C[PEG4]-NH2; thioether N-15) | 8.51 | 9.41 |  |  |

The next lines start with the values.

| pKd ([1]; pH 6.0, single-cycle kinetics) | pKd ([2]; pH 7.4, single-cycle kinetics) | pKd ([1]; SPR, pH 6.0, Table 1-3-2-2) | pKd ([2]; SPR, pH 7.4, Table 1-3-2-2) | SMILES |
| --- | --- | --- | --- | --- |
| 9.02 | 9.64 |  |  | CC[C@H](C)[C@@H]1NC(=O)[C@H](Cc2ccc(OC)cc2)NC(=O)[C@H](Cc2ccc(O)cc2)NC(=O)[C@H](CC(N)=O)NC(=O)[C@H](Cc2c[nH]c3ccccc23)N(C)C(=O)[C@H](C(C)C)NC(=O)[C@H](Cc2cccc(Cl)c2)N(C)C(=O)[C@H](C(C)C)NC(=O)[C@H](C)NC(=O)CSC[C@@H](C(=O)NCCOCCOCCOCCOCCC(N)=O)NC(=O)[C@H](Cc2ccc(C(=O)NCCOCCOCCOCCOCCC(=O)O)cc2)N(C)C(=O)[C@H](Cc2cccc(C(=O)O)c2)NC(=O)[C@H](CCCNC(=N)N)NC(=O)[C@H](CCCCN)NC(=O)[C@H]([C@@H](C)CC)NC1=O [compound 180] ({CH2CO}-AV[NMePhe(3-Cl)]V[NMeW]NYY(Me)IIKR[Phe(3-COOH)][NMePhe(4-COOH)](PEG4)C[PEG4]-NH2; thioether N-15) |
| 6.91 | 7.61 |  |  | CCC(CC)[C@@H]1NC(=O)[C@H](Cc2ccc(OC)cc2)NC(=O)[C@H](Cc2ccc(N)nc2)NC(=O)[C@H](CC(N)=O)NC(=O)[C@H](Cc2cnc3ccccn23)NC(=O)[C@H](C(C)C)NC(=O)[C@H](Cc2cccc(Cl)c2)N(C)C(=O)[C@H](C(C)C)NC(=O)[C@H](C)NC(=O)CSC[C@@H](C(=O)NCC(=O)N[C@@H](CCCCN=[N+]=[N-])C(N)=O)NC(=O)[C@H](Cc2ccc(C(=O)O)cc2)N(C)C(=O)[C@H](Cc2ccncc2)NC(=O)[C@H](CCCNC(=N)N)NC(=O)[C@H](CCCNC(=N)N)NC(=O)[C@H]([C@@H](C)CC)NC1=O [compound 181] ({CH2CO}-AV[NMePhe(3-Cl)]V[Ala(imidazo(1,2-a)pyr3yl)]N[3Pal(6-NH2)]Y(Me)[Nva(3-Et)]IRR[4Pal][NMePhe(4-COOH)]CG[Lys(N3)]-NH2; thioether N-15) |
|  |  | 6.92 | 6.87 | CCC(CC)[C@@H]1NC(=O)[C@H](Cc2ccc(OC)cc2)NC(=O)[C@H](Cc2ccc(N)nc2)NC(=O)[C@H](CC(N)=O)NC(=O)[C@H](Cc2cnc3ccccn23)NC(=O)[C@H](C(C)C)NC(=O)[C@H](Cc2cccc(Cl)c2)N(C)C(=O)[C@H](C(C)C)NC(=O)[C@H](C)NC(=O)CSC[C@@H](C(=O)NCC(=O)N[C@H](CCC(=O)O)C(=O)N[C@H](CCC(=O)O)C(=O)N[C@H](CCC(=O)O)C(=O)N[C@H](CO)C(=O)N[C@H](CO)C(=O)N[C@@H](CCCCN=[N+]=[N-])C(N)=O)NC(=O)[C@H](Cc2ccc(C(=O)O)cc2)N(C)C(=O)[C@H](Cc2ccncc2)NC(=O)[C@H](CCCNC(=N)N)NC(=O)[C@H](CCCNC(=N)N)NC(=O)[C@H]([C@@H](C)CC)NC1=O [compound 184] |
|  |  | 6.42 | 7.54 | CC[C@H](C)[C@@H]1NC(=O)[C@H](Cc2ccc(OC)cc2)NC(=O)[C@H](Cc2ccc(N)nc2)NC(=O)[C@H](CC(N)=O)NC(=O)[C@H](Cc2cnc3ccccn23)NC(=O)[C@H](C(C)C)NC(=O)[C@H](Cc2cccc(Cl)c2)N(C)C(=O)[C@H](C(C)C)NC(=O)[C@H](C)NC(=O)CSC[C@@H](C(=O)NCC(=O)N[C@H](CCC(=O)O)C(=O)N[C@H](CCC(=O)O)C(=O)N[C@H](CCC(=O)O)C(=O)N[C@H](CO)C(=O)N[C@H](CO)C(=O)N[C@@H](CCCCN=[N+]=[N-])C(N)=O)NC(=O)[C@H](Cc2ccc(O)cc2)N(C)C(=O)[C@H](Cc2ccncc2)NC(=O)[C@H](CCCNC(=N)N)NC(=O)[C@H](CCCNC(=N)N)NC(=O)[C@H]([C@@H](C)CC)NC1=O [compound 185] |
|  |  | 7.51 | 8.00 | CCC(CC)[C@@H]1NC(=O)[C@H](Cc2ccc(O)cc2)NC(=O)[C@H](Cc2ccc(N)nc2)NC(=O)[C@H](CC(N)=O)NC(=O)[C@H](Cc2c[nH]c3ccccc23)N(C)C(=O)[C@H](C(C)C)NC(=O)[C@H](Cc2ccccc2)N(C)C(=O)[C@H](C(C)C)NC(=O)[C@H](C)NC(=O)CSC[C@@H](C(=O)NCC(=O)N[C@@H](CCCCN=[N+]=[N-])C(N)=O)NC(=O)[C@H](Cc2ccc(C(=O)O)cc2)N(C)C(=O)[C@H](Cc2ccc(O)cc2)NC(=O)[C@H](CCCNC(=N)N)NC(=O)[C@H](CCCCN)NC(=O)[C@H]([C@@H](C)CC)NC1=O [compound 187] ({CH2CO}-AV[NMeF]V[NMeW]N[3Pal(6-NH2)]Y[Nva(3-Et)]IKRY[NMePhe(4-COOH)]CG[Lys(N3)]-NH2; thioether N-15) |
|  |  | 6.76 | 7.47 | CCC(CC)[C@@H]1NC(=O)[C@H](Cc2ccc(O)cc2)NC(=O)[C@H](Cc2ccc(N)nc2)NC(=O)[C@H](CC(N)=O)NC(=O)[C@H](Cc2c[nH]c3ccccc23)N(C)C(=O)[C@H](C(C)C)NC(=O)[C@H](Cc2ccccc2)N(C)C(=O)[C@H](C(C)C)NC(=O)[C@H](C)NC(=O)CSC[C@@H](C(=O)NCC(=O)N[C@H](CCC(=O)O)C(=O)N[C@H](CCC(=O)O)C(=O)N[C@H](CCC(=O)O)C(=O)N[C@H](CO)C(=O)N[C@H](CO)C(=O)N[C@@H](CCCCN=[N+]=[N-])C(N)=O)NC(=O)[C@H](Cc2ccc(C(=O)O)cc2)N(C)C(=O)[C@H](Cc2ccc(O)cc2)NC(=O)[C@H](CCCNC(=N)N)NC(=O)[C@H](CCCCN)NC(=O)[C@H]([C@@H](C)CC)NC1=O [compound 188] ({CH2CO}-AV[NMeF]V[NMeW]N[3Pal(6-NH2)]Y[Nva(3-Et)]IKRY[NMePhe(4-COOH)]CG[dE][dE][dE][dS][dS][Lys(N3)]-NH2; thioether N-15) |
